From US11919869B2, “CD73 compounds” (Gilead Sciences, Inc., priority 2021, dated 2024)
Converted amounts (≈) assume the structure as drawn. Counter-ions that a name gives are not always drawn. Like-named read-outs stand apart in the source and are kept apart here.

Columns and labels:
[1] = target: T1, alkaline phosphatase (intestinal) (Bos taurus, UniProt P19111); test: Alkaline phosphatase stability assay; type: in vitro ADME; conditions: 2 μM substrate, 100 ng/mL purified Bovine intestinal alkaline phosphatase, Tris buffer pH 7.8; read-out: ALP half life
T1 construct: purchased MilliPore Sigma
T1 sequence (P19111 20-506 limits assumed): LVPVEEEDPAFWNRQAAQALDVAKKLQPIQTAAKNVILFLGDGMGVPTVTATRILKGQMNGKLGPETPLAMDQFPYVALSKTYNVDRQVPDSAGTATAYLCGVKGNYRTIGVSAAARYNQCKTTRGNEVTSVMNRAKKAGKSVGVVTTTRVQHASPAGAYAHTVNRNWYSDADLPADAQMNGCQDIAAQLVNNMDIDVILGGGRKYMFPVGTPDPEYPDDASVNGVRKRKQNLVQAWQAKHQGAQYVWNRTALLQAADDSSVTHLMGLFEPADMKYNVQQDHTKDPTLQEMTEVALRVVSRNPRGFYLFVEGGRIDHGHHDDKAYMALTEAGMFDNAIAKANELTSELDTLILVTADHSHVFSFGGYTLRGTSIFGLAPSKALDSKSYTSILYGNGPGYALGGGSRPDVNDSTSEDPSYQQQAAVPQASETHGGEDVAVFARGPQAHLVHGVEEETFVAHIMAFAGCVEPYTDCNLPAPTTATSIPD
Experimental: Alkaline Phosphatase Stability Assay
(§1) Alkaline phosphatase stability assays were carried out using purified Bovine intestinal alkaline phosphatase. Duplicate sets were performed with a TECAN liquid handler. Assay substrate concentrations were 2 μM. Purified Bovine intestinal alkaline phosphatase was acquired through MilliPore Sigma as a lyophilized powder. Reaction mixtures were prepared by the addition of 2 μL compound (400 μM stock solution in DMSO) into wells of a 96-well plate containing […] Tris buffer (100 mM, pH 7.8, 1 mM MgCl2 and 1 mM ZnCl2) with and without 100 ng/mL purified Bovine intestinal alkaline phosphatase. Samples were assessed at time points of 3, 30, 60, 120, 180 and 240 minutes. At each time point, 25 μL of the reaction mixtures were added into a 96-well plate containing 225 μL of quench solution (99% Acetonitrile with 1% Formic Acid and 100 nM Labetalol as internal standard). The plates containing the quench samples were then vortexed at 1100 RPM for 10 minutes and centrifuged at 4500 RPM for 20 minutes. 150 μL of the resulting supernatant was transferred into a 96-well plate containing 150 μL of water and vortexed at 1100 RPM for 3 minutes to mix.
(§2) Samples were analyzed with a Leap HTC Autosampler and a Dionex UltiMate 3000 HPLC system interfaced to a Thermo Q-Exactive mass spectrometer operating in positive ion electrospray mode. A Thermo Scientific Hypersil GOLD (1.9 μM particle size, 50×2.1 mm) HPLC column was used and mobile phase was pumped at 0.5 mL/min. Elution of analytes was achieved by a series of linear gradients of acetonitrile in water containing 0.1% (v/v) formic acid. Quantification was by analyte/internal standard peak area ratio (PAR).

[2] = Kinetic solubility at pH 1 and 7; type: physicochemical; conditions: 1.0% DMSO; for solubility kinetic at 24 h: 23 °C, kinetic from dmso stock
Experimental: Kinetic Solubility at pH 1 and 7
100-fold dilutions of each compound as DMSO stock solution were prepared by combining 3 μL of DMSO stock with 297 μL of the appropriate media in a Millipore solubility filter plate with 0.45 μM polycarbonate filter membrane using Hamilton Starlet liquid handling. The final DMSO Concentration is 1.0% and maximum theoretical compound concentration is […] (assuming stock concentration of 10 mM). The filter plate was sealed. Following 24-hour incubation at ambient temperature (22.2-23.6° C.), the samples were vacuum filtered, and the filtrates were collected in a 96 well polypropylene plate for analysis. The collection plate was sealed for analysis. Filtrates were injected into the nitrogen detector for quantification. The equimolar nitrogen response of the detector is calibrated using standards which span the dynamic range of the instrument from 0.08 to 4500 μg/ml nitrogen. The filtrates were quantified with respect to this calibration curve. The calculated solubility values are corrected for background nitrogen present in the DMSO, and the media used to prepare the samples

[3] = Assay buffer stability (Tris buffer without alkaline phosphatase); type: physicochemical; conditions: 2 μM substrate, Tris buffer pH 7.8 without alkaline phosphatase
Experimental: as §1, §2

[4] = Thermodynamic solubility in FaSSIF and FeSSIF; type: physicochemical; conditions: 20 hours, ambient temperature; for FaSSIF (pH 6.5): fasted-state simulated intestinal fluid pH 6.5; for FeSSIF (pH 5.0): fed-state simulated intestinal fluid pH 5.0
Experimental: Thermodynamic Solubility in FASSIF and FESSIF.
The aqueous solubility of compounds over a time of 20 hours was assessed. Solubility was determined at ambient temperature in buffered fasted-state simulated intestinal fluid (FaSSIF, pH 6.5) and buffered fed-state simulated intestinal fluid (FeSSIF, pH 5.0) prepared in-house using BioRelevant Simulated Intestinal Fluid (SIF) powder. Solids were added to FaSSIF or FeSSIF in 1.5-mL Eppendorf tubes, vortexed for 1 minute, then agitated for 20 hours in an Eppendorf ThermoMixer C. To determine concentration in solution, the suspensions were centrifuged for 10 min at 14,800 rpm and supernatants were diluted to a volume of 1 mL with 1:1 v/v acetonitrile:water. All diluted supernatants were analyzed by UPLC using a Waters Acquity UPLC with a PDA UV detector.

[5] = In vivo rat pharmacokinetics; conditions: rat; Wister Han rats, 100 mg/kg suspension; Comparator C measured in plasma; read-out: Comparator C AUC 0-24 h
Experimental: In Vivo Rat Pharmacokinetics Experiments
In vivo Wister Han rat pharmacokinetic experiments of compound Comparator C and Example 4 were assessed as follows.
Compound Comparator C was dosed as a 100 mg/kg suspension to Wister Han rats (N=3) using the following formulation:30% captisol, 5% soluplus, 65% pH 2 water. Compound 1170997 was dosed separately as a 100 mg-eq/kg (123 mg/kg) solution to Wister Han rats (N=3) using the following formulation: 0.5% Methocel E4M Premium, 0.1% Tween-80, 99.4% Water. Samples were assessed for the presence of Comparator C.
Comparator C and Example 4. […] As is shown in Table 4, the AUC 0-24 h measured for Comparator C in plasma was higher after dosing with Example 4 than the value measured after dosing with an equivalent dose of Comparator C.

[6] = In vivo cyno pharmacokinetics; conditions: cynomolgus monkeys
Experimental: In Vivo Cyno Pharmacokinetics Experiments
In vivo cyno pharmacokinetic experiments of compound Comparator B and Example 1 were assessed as follows.
Compound Comparator B hydrochloride salt was dosed as a 30 mg/kg suspension to cynomolgus monkeys (N=3) using the following formulation: 0.5% Methocel E4M Premium, 0.1% Tween-80, 99.4% Water. Compound Comparator B free base was dosed separately as a 12.5 mg/kg (50 mg-fixed) suspension to cynomolgus monkeys (N=3) using the following formulation: 0.5% Methocel E4M Premium, 0.1% Tween-80, 99.4% Water. Compound Example 1 was dosed separately as a 12.5 mg/kg (50 mg-fixed) suspension to cynomolgus monkeys (N=3) using the following formulation: 0.5% Methocel E4M Premium, 0.1% Tween-80, 99.4% Water. […] As is shown in Table 4, the AUC 0-24 h measured for Comparator B in plasma was higher after dosing with Example 1 than the value measured after dosing with an equivalent dose of Comparator B.

[7] = aqueous buffer, pH 7, 24-hour incubation at ambient temperature, read-out: Kinetic Solubility pH 7
[8] = simulated gastric fluid, pH 1, 24-hour incubation at ambient temperature, read-out: Kinetic Solubility pH 1
[9] = pH 1, 24-hour incubation at ambient temperature
[10] = pH 7, 24-hour incubation at ambient temperature

Compound | half-life at 2 µM [1] [min] | solubility kinetic at 24 h [2, 7] [µM] | solubility kinetic at 24 h [2, 8] [µM] | FaSSIF (pH 6.5) [4] [ug/mL] | FeSSIF (pH 5.0) [4] [ug/mL] | further results
O=c1[nH]c(=O)n(COP(=O)(O)O)cc1-c1cc([C@H]2C[C@@H]2c2ccc3cnn(CC(F)(F)F)c3c2)c2nccn2n1 [Example 2, (2,4-dioxo-5-(8-((1S,2S)-2-(1-(2,2,2-trifluoroethyl)-1H-indazol-6-yl)cyclopropyl)imidazo[1,2-b]pyridazin-6-yl)-3,4-dihydropyrimidin-1(2H)-yl)methyl dihydrogen phosphate] | 11 | 89 | 3 |  |  | 
O=c1[nH]c(=O)n(COP(=O)(O)O)cc1-c1cc([C@H]2C[C@@H]2c2ccc3cnn(CC(F)(F)F)c3n2)c2ncc(F)n2n1 [Example 5, (5-(3-fluoro-8-((1S,2S)-2-(1-(2,2,2-trifluoroethyl)-1H-pyrazolo[3,4-b]pyridin-6-yl)cyclopropyl)imidazo[1,2-b]pyridazin-6-yl)-2,4-dioxo-3,4-dihydropyrimidin-1(2H)-yl)methyl dihydrogen phosphate] | 14 | 86 | 79 |  |  | half-life at 2 µM [3]: > 1580 min
5-(8-((1S,2S)-2-(1-(2,2,2-trifluoroethyl)-1H-indazol-5-yl)cyclopropyl)imidazo[1,2-b]pyridazin-6-yl)pyrimidine-2,4(1H,3H)-dione [reference compound] |  |  |  | 0.7 | 12.4 | Kinetic Solubility pH 1 [2, 9]: 72 uM; Kinetic Solubility pH 7 [2, 10]: 10 uM
O=c1[nH]cc(-c2cc([C@H]3C[C@@H]3c3ccc4cnn(CC(F)(F)F)c4c3)c3ncc(F)n3n2)c(=O)[nH]1 [Comparator C HCl salt, reference compound] |  |  |  |  |  | AUC(0-t) [5]: 11.2 µM·h
O=c1c(-c2cc([C@H]3C[C@@H]3c3ccc4cnn(CC(F)(F)F)c4c3)n3nccc3n2)cn(COP(=O)(O)O)c(=O)n1COP(=O)(O)O [Example 7, (2,4-dioxo-5-(7-((1S,2S)-2-(1-(2,2,2-trifluoroethyl)-1H-indazol-6-yl)cyclopropyl)pyrazolo[1,5-a]pyrimidin-5-yl)pyrimidine-1,3(2H,4H)-diyl)bis(methylene) bis(dihydrogen phosphate)] |  | > 100 | 89 |  |  | 
CC1(C)CN(c2cc(-c3c[nH]c(=O)[nH]c3=O)nn3ccnc23)CC1(F)F [B, 5-[8-(3,3-difluoro-4,4-dimethyl-pyrrolidin-1-yl)imidazo[1,2-b]pyridazin-6-yl]-1H-pyrimidine-2,4-dione, reference compound] |  | 5 (≈ 1.81 µg/mL) | 95 (≈ 34.4 µg/mL) | 12 | 33 | 
O=c1[nH]c(=O)n(COP(=O)(O)O)cc1-c1cc([C@H]2C[C@@H]2c2ccc3cnn(CC(F)(F)F)c3c2)n2nccc2n1 [Example 6, (2,4-dioxo-5-(7-((1S,2S)-2-(1-(2,2,2-trifluoroethyl)-1H-indazol-6-yl)cyclopropyl)pyrazolo[1,5-a]pyrimidin-5-yl)-3,4-dihydropyrimidin-1(2H)-yl)methyl dihydrogen phosphate] | 8 | 85 | 10 |  |  | half-life at 2 µM [3]: > 1580 min
O=c1c(-c2cc([C@H]3C[C@@H]3c3ccc4cnn(CC(F)(F)F)c4c3)c3ncc(F)n3n2)cn(COP(=O)(O)O)c(=O)n1COP(=O)(O)O [Example 3, (5-(3-fluoro-8-((1S,2S)-2-(1-(2,2,2-trifluoroethyl)-1H-indazol-6-yl)cyclopropyl)imidazo[1,2-b]pyridazin-6-yl)-2,4-dioxopyrimidine-1,3(2H,4H)-diyl)bis(methylene) bis(dihydrogen phosphate)] |  | > 100 | 91 |  |  | 
5-(7-((1S,2S)-2-(1-(2,2,2-trifluoroethyl)-1H-indazol-6-yl)cyclopropyl)pyrazolo[1,5-a]pyrimidin-5-yl)pyrimidine-2,4(1H,3H)-dione [reference compound] |  |  |  | 0.5 | 11.1 | Kinetic Solubility pH 1 [2, 9]: 65 uM; Kinetic Solubility pH 7 [2, 10]: 7 uM
CC1(C)CN(c2cc(-c3c[nH]c(=O)[nH]c3=O)nn3ccnc23)CC1(F)F [Comparator B HCl salt, 5-[8-(3,3-difluoro-4,4-dimethyl-pyrrolidin-1-yl)imidazo[1,2-b]pyridazin-6-yl]-1H-pyrimidine-2,4-dione, reference compound] |  |  |  |  |  | AUC(0-t) ([6]; cynomolgus monkey, 120 mg fixed (30 mg/kg) suspension, Comparator B measured in plasma, read-out: Comparator B AUC 0-24 h): 33.2 µM·h
O=c1[nH]cc(-c2cc([C@H]3C[C@@H]3c3ccc4cnn(CC(F)(F)F)c4n3)c3ncc(F)n3n2)c(=O)[nH]1 [E, reference compound] |  | 8 (≈ 3.89 µg/mL) | 94 (≈ 45.7 µg/mL) |  |  | 
5-(3-fluoro-8-((1S,2S)-2-(1-(2,2,2-trifluoroethyl)-1H-pyrazolo[3,4-b]pyridin-6-yl)cyclopropyl)imidazo[1,2-b]pyridazin-6-yl)pyrimidine-2,4(1H,3H)-dione [reference compound] |  |  |  |  |  | Kinetic Solubility pH 1 [2, 9]: 9 uM; Kinetic Solubility pH 7 [2, 10]: 6 uM
CC1(C)CN(c2cc(-c3cn(COP(=O)(O)O)c(=O)[nH]c3=O)nn3ccnc23)CC1(F)F [Example 1, (5-(8-(3,3-difluoro-4,4-dimethylpyrrolidin-1-yl)imidazo[1,2-b]pyridazin-6-yl)-2,4-dioxo-3,4-dihydropyrimidin-1(2H)-yl)methyl dihydrogen phosphate] | 10 | > 100 | > 100 | >1000 | >1000 | AUC 0-24 h measured for Comparator B in plasma, compared with dosing an equivalent dose of Comparator B ([6]; 12.5 mg/kg (50 mg-fixed) suspension): higher; half-life at 2 µM [3]: > 1580 min
